According to PubChem BioAssay (NCI):
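In this assay, cells in 96-well plates receive the compound at five concentrations for 48 hours. Endpoints are linearly interpolated between the surrounding concentrations. GI50 = concentration required for 50% inhibition of growth. TGI marks complete inhibition of growth.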

Experiments:
Assay in all cases: NCI-60 cell line screen, 48 h
[1] = test system: TK-10 renal
[2] = test system: SR leukemia
[3] = test system: HL-60(TB) leukemia
[4] = test system: ACHN renal
[5] = test system: OVCAR-5 ovarian
[6] = test system: SK-MEL-5 melanoma
[7] = test system: HCC-2998 colon
[8] = test system: NCI-H460 lung
[9] = test system: PC-3 prostate
[10] = test system: DU-145 prostate
[11] = test system: KM12 colon
[12] = test system: 786-0 renal
[13] = test system: SN12C renal
[14] = test system: SK-MEL-28 melanoma
[15] = test system: SNB-19 CNS
[16] = test system: MDA-MB-231 breast
[17] = test system: T-47D breast
[18] = test system: UACC-62 melanoma
[19] = test system: OVCAR-3 ovarian
[20] = test system: NCI-H23 lung
[21] = test system: MCF7 breast
[22] = test system: A498 renal
[23] = test system: HT29 colon
[24] = test system: SF-268 CNS
[25] = test system: A549 NSCLC
[26] = test system: NCI-H226 lung
[27] = test system: M14 melanoma
[28] = test system: HS 578T breast
[29] = test system: HOP-62 NSCLC
[30] = test system: RPMI-8226 leukemia
[31] = test system: COLO 205 colon
[32] = test system: SK-OV-3 ovarian
[33] = test system: RXF 393 renal
[34] = test system: SF-539 CNS
[35] = test system: CAKI-1 renal
[36] = test system: MOLT-4 leukemia
[37] = test system: NCI/ADR-RES ovarian
[38] = test system: MDA-MB-435
[39] = test system: OVCAR-4 ovarian
[40] = test system: NCI-H522 lung
[41] = test system: SF-295 CNS
[42] = test system: HCT-116 colon
[43] = test system: OVCAR-8 ovarian
[44] = test system: CCRF-CEM leukemia
[45] = test system: HCT-15 colon
[46] = test system: UO-31 renal
[47] = test system: SNB-75 CNS
[48] = test system: MALME-3M melanoma
[49] = test system: K-562 leukemia
[50] = test system: BT-549 breast
[51] = test system: IGROV1 ovarian
[52] = test system: UACC-257 melanoma
[53] = test system: SW-620 colon
[54] = test system: U251 CNS

## COc1cc(/C=C/C(=O)c2ccccc2)cc(OC)c1OC
[1]
  GI50: 10.2 µM
  TGI: 22.2 µM
[2]
  GI50: 2.33 µM
  TGI: 6.68 µM
[3]
  GI50: 2.56 µM
  TGI: 6.82 µM
[4]
  GI50: 2.31 µM
  TGI: 6.29 µM
[5]
  GI50: 3.95 µM
  TGI: 16.6 µM
[6]
  GI50: 4.12 µM
  TGI: 15 µM
[7]
  GI50: 12.3 µM
  TGI: 25.6 µM
[8]
  GI50: 2.25 µM
  TGI: 5.91 µM
[9]
  GI50: 4.54 µM
  TGI: 17.9 µM
[10]
  GI50: 4.92 µM
  TGI: 16.4 µM
[11]
  GI50: 3.22 µM
  TGI: 10.2 µM
[12]
  GI50: 2.74 µM
  TGI: 7.36 µM
[13]
  GI50: 2.94 µM
  TGI: 10.9 µM
[14]
  GI50: 2.29 µM
  TGI: 5.75 µM
[15]
  GI50: 12.8 µM
  TGI: 26.8 µM
[16]
  GI50: 5.61 µM
  TGI: 20 µM
[17]
  GI50: 3.93 µM
  TGI: 20.9 µM
[18]
  GI50: 2.23 µM
  TGI: 5.7 µM
[19]
  GI50: 4.02 µM
  TGI: 12.9 µM
[20]
  GI50: 7.45 µM
  TGI: 23.3 µM
[21]
  GI50: 0.398 µM
  TGI: 10.3 µM
[22]
  GI50: 12.3 µM
  TGI: 25.3 µM
[23]
  GI50: 2.47 µM
  TGI: 5.37 µM
[24]
  GI50: 4.2 µM
  TGI: 17.5 µM
[25]
  GI50: 6.14 µM
  TGI: 23 µM
[26]
  GI50: 2.96 µM
  TGI: 14.3 µM
[27]
  GI50: 3.27 µM
  TGI: 11.6 µM
[28]
  GI50: 4.62 µM
  TGI: 39.8 µM
[29]
  GI50: 6.06 µM
  TGI: 19.7 µM
[30]
  GI50: 2.38 µM
  TGI: 6.29 µM
[31]
  GI50: 9.32 µM
  TGI: 21.7 µM
[32]
  GI50: 4.42 µM
  TGI: 13.8 µM
[33]
  GI50: 3.11 µM
  TGI: 11.5 µM
[34]
  GI50: 2.96 µM
  TGI: 10.1 µM
[35]
  GI50: 5.61 µM
  TGI: 19.9 µM
[36]
  GI50: 2.94 µM
  TGI: 8.13 µM
[37]
  GI50: 3.38 µM
  TGI: 15 µM
[38]
  GI50: 3.06 µM
  TGI: 11.3 µM
[39]
  GI50: 4.53 µM
  TGI: 19.4 µM
[40]
  GI50: 1.95 µM
  TGI: 3.88 µM
[41]
  GI50: 10.3 µM
  TGI: 24.2 µM
[42]
  GI50: 1.98 µM
  TGI: 4.07 µM
[43]
  GI50: 2.95 µM
  TGI: 11.8 µM
[44]
  GI50: 1.49 µM
  TGI: 5.89 µM
[45]
  GI50: 1.99 µM
  TGI: 5.26 µM
[46]
  GI50: 1.86 µM
  TGI: 3.78 µM
[47]
  GI50: 10.2 µM
  TGI: 22.2 µM
[48]
  GI50: 4.83 µM
  TGI: 19.7 µM
[49]
  GI50: 3.23 µM
  TGI: 10.7 µM
[50]
  GI50: 3.79 µM
  TGI: 11.2 µM
[51]
  GI50: 4.04 µM
  TGI: 14.2 µM
[52]
  GI50: 3.7 µM
  TGI: 15 µM
[53]
  GI50: 2.48 µM
  TGI: 7.2 µM

## COc1ccc(C(=O)c2sc3nc4c(cc3c2N)CCCC4)cc1OC
[1]
  GI50: 4.77 µM
  TGI: 26.5 µM
[2]
  GI50: 1.59 µM
  TGI: 17.8 µM
[3]
  GI50: 2.8 µM
  TGI: 7.62 µM
[4]
  GI50: 6.58 µM
  TGI: 31.3 µM
[5]
  GI50: 14.1 µM
  TGI: 48.5 µM
[6]
  GI50: 1.87 µM
  TGI: 4.92 µM
[7]
  GI50: 7.01 µM
  TGI: 30.4 µM
[8]
  GI50: 3.22 µM
  TGI: 13.2 µM
[9]
  GI50: 2.97 µM
  TGI: 15 µM
[10]
  GI50: 6.74 µM
  TGI: 36.6 µM
[54]
  GI50: 3.03 µM
  TGI: 16.2 µM
[11]
  GI50: 2.43 µM
  TGI: 15.5 µM
[12]
  GI50: 4.01 µM
  TGI: 17 µM
[13]
  GI50: 4.18 µM
  TGI: 48.5 µM
[14]
  GI50: 2.95 µM
  TGI: 14.8 µM
[15]
  GI50: 7.06 µM
  TGI: > 100 µM
[16]
  GI50: 3.74 µM
  TGI: 8.72 µM
[17]
  GI50: 2.65 µM
  TGI: 8.95 µM
[18]
  GI50: 1.99 µM
  TGI: 6.8 µM
[19]
  GI50: 3.91 µM
  TGI: 24.4 µM
[20]
  GI50: 2.64 µM
  TGI: 9.94 µM
[21]
  GI50: 2.74 µM
  TGI: 10.6 µM
[22]
  GI50: 1.83 µM
  TGI: 9.43 µM
[23]
  GI50: 3.08 µM
  TGI: 15.9 µM
[24]
  GI50: 5.56 µM
  TGI: 34.6 µM
[25]
  GI50: 3.28 µM
  TGI: 12.9 µM
[26]
  GI50: 3.5 µM
  TGI: 23 µM
[27]
  GI50: 2.83 µM
  TGI: 11.5 µM
[28]
  GI50: 4.93 µM
  TGI: 56.6 µM
[29]
  GI50: 3.87 µM
  TGI: 15.3 µM
[30]
  GI50: 2.31 µM
  TGI: 8.01 µM
[31]
  GI50: 3.33 µM
  TGI: 10.1 µM
[32]
  GI50: 10 µM
  TGI: 47.6 µM
[33]
  GI50: 3.41 µM
  TGI: 24.2 µM
[34]
  GI50: 3.83 µM
  TGI: 25.7 µM
[35]
  GI50: 2.83 µM
  TGI: 13 µM
[36]
  GI50: 2.62 µM
  TGI: 6.49 µM
[37]
  GI50: 2.04 µM
  TGI: 6.67 µM
[38]
  GI50: 0.723 µM
  TGI: 5.76 µM
[39]
  GI50: 3.48 µM
  TGI: 18.6 µM
[40]
  GI50: 1.52 µM
  TGI: 5.53 µM
[41]
  GI50: 3.06 µM
  TGI: 13.5 µM
[42]
  GI50: 3.78 µM
  TGI: 50.2 µM
[43]
  GI50: 2.83 µM
  TGI: 9.88 µM
[44]
  GI50: 2.95 µM
  TGI: 12.3 µM
[45]
  GI50: 2.48 µM
  TGI: 21.2 µM
[46]
  GI50: 3.04 µM
  TGI: 13.8 µM
[47]
  GI50: 2.79 µM
  TGI: 9.93 µM
[48]
  GI50: 2.71 µM
  TGI: 14.8 µM
[49]
  GI50: 0.946 µM
  TGI: 40.6 µM
[50]
  GI50: 2.68 µM
  TGI: 8.25 µM
[51]
  GI50: 4.75 µM
  TGI: 29.3 µM
[52]
  GI50: 3.81 µM
  TGI: 14.9 µM
[53]
  GI50: 4.15 µM
  TGI: 26.9 µM
